Laboratory results published in US12077503B2, “Substituted cyclic amides and their use as herbicides” (FMC CORPORATION, priority 2015, dated 2024).

What was measured:
Type in all cases: in vivo
[1] = system: barnyardgrass (Echinochloa crus-galli); assay: Test G Pre-Emergence Protocol; conditions: Echinochloa crus-galli, pre-emergence, 312 h, evaluated after 13 days; for pest or weed control at 15.625 g/ha: 15.625 g ai/ha, read-out: Barnyard grass damage rating (100=total damage to plant; 0=no damage to plant); for pest or weed control at 62.5 g/ha: 62.5 g ai/ha, 100=total damage to plant, 0=no damage to plant, read-out: plant damage rating, Barnyardgrass; for pest or weed control at 250 g/ha: 250 g ai/ha, read-out: Barnyardgrass damage rating (100=total damage to plant; 0=no damage to plant)
Method in brief: (§1)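 Visual injury (0–100) at day 13 after a single pre-emergence spray. Rates: 15.625, 62.5, 250 g/ha in acetone–water 50:50 with 0.5% Tween 20. Growth conditions: 24/16° C, 14 h light, 65% humidity.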

corn (Zea mays) [2] = assay: Test G Pre-Emergence Protocol; conditions: Zea mays, pre-emergence, 312 h, evaluated after 13 days; for plant injury at 15.625 g/ha: 15.625 g ai/ha; for plant injury at 15.625 g/ha / plant injury at 250 g/ha: read-out: Corn damage rating (100=total damage to plant; 0=no damage to plant); for plant injury at 62.5 g/ha: 62.5 g ai/ha, 100=total damage to plant, 0=no damage to plant, read-out: plant damage rating, Corn; for plant injury at 250 g/ha: 250 g ai/ha
Method in brief: as §1

[3] = system: giant foxtail (Setaria faberi); assay: Test G Pre-Emergence Protocol; conditions: Setaria faberi, pre-emergence, 312 h, evaluated after 13 days; for pest or weed control at 15.625 g/ha: 15.625 g ai/ha; for pest or weed control at 15.625 g/ha / pest or weed control at 250 g/ha: read-out: Foxtail, Giant damage rating (100=total damage to plant; 0=no damage to plant); for pest or weed control at 62.5 g/ha: 62.5 g ai/ha, 100=total damage to plant, 0=no damage to plant, read-out: plant damage rating, Foxtail, Giant; for pest or weed control at 250 g/ha: 250 g ai/ha
Method in brief: as §1

[4] = system: ivy-leaved morning glory (Ipomoea hederacea); assay: Test G Pre-Emergence Protocol; conditions: Ipomoea, pre-emergence, 312 h, evaluated after 13 days; for pest or weed control at 15.625 g/ha: 15.625 g ai/ha, read-out: Morning-glory, Ivy-leaved damage rating (100=total damage to plant; 0=no damage to plant); for pest or weed control at 62.5 g/ha: 62.5 g ai/ha, 100=total damage to plant, 0=no damage to plant, read-out: plant damage rating, Morningglory, Ivy-leaved; for pest or weed control at 250 g/ha: 250 g ai/ha, read-out: Morningglory, Ivy-leaved damage rating (100=total damage to plant; 0=no damage to plant)
Method in brief: as §1

[5] = system: redroot pigweed (Amaranthus retroflexus); assay: Test G Pre-Emergence Protocol; conditions: Amaranthus retroflexus, pre-emergence, 312 h, evaluated after 13 days; for pest or weed control at 15.625 g/ha: 15.625 g ai/ha; for pest or weed control at 15.625 g/ha / pest or weed control at 250 g/ha: read-out: Pigweed, Redroot damage rating (100=total damage to plant; 0=no damage to plant); for pest or weed control at 62.5 g/ha: 62.5 g ai/ha, 100=total damage to plant, 0=no damage to plant, read-out: plant damage rating, Pigweed, Redroot; for pest or weed control at 250 g/ha: 250 g ai/ha
Method in brief: as §1

[6] = system: velvetleaf (Abutilon theophrasti); assay: Test G Pre-Emergence Protocol; conditions: Abutilon theophrasti, pre-emergence, 312 h, evaluated after 13 days; for pest or weed control at 15.625 g/ha: 15.625 g ai/ha; for pest or weed control at 15.625 g/ha / pest or weed control at 250 g/ha: read-out: Velvetleaf damage rating (100=total damage to plant; 0=no damage to plant); for pest or weed control at 62.5 g/ha: 62.5 g ai/ha, 100=total damage to plant, 0=no damage to plant, read-out: plant damage rating, Velvetleaf; for pest or weed control at 250 g/ha: 250 g ai/ha
Method in brief: as §1

[7] = system: barnyardgrass (Echinochloa crus-galli); assay: Test G Post-Emergence Protocol; conditions: Echinochloa crus-galli, post-emergence, 312 h; for pest or weed control at 15.625 g/ha: 15.625 g ai/ha, evaluated after 13 days (100=total damage to plant; 0=no damage to plant), read-out: Barnyardgrass damage rating; for pest or weed control at 62.5 g/ha: 62.5 g ai/ha, read-out: Barnyardgrass damage rating (100=total damage to plant; 0=no damage to plant); for pest or weed control at 62.5 g/ha / pest or weed control at 250 g/ha: evaluated after 13 days; for pest or weed control at 250 g/ha: 250 g ai/ha, read-out: damage to plant, Barnyardgrass (100=total damage to plant; 0=no damage to plant)
Method in brief: (§2)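 Foliar application was made 8 days after sowing, using an aqueous spray of the active in acetone/water (50:50) with 0.5% Tween 20, at doses of 15.625, 62.5 or 250 g/ha. Injury was assessed 13 days later, where 100 meant the plant was fully damaged.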

corn (Zea mays) [8] = assay: Test G Post-Emergence Protocol; conditions: Zea mays, post-emergence, 312 h; for plant injury at 15.625 g/ha: 15.625 g ai/ha, evaluated after 13 days (100=total damage to plant; 0=no damage to plant), read-out: Corn damage rating; for plant injury at 62.5 g/ha: 62.5 g ai/ha, read-out: Corn damage rating (100=total damage to plant; 0=no damage to plant); for plant injury at 62.5 g/ha / plant injury at 250 g/ha: evaluated after 13 days; for plant injury at 250 g/ha: 250 g ai/ha, read-out: damage to plant, Corn (100=total damage to plant; 0=no damage to plant)
Method in brief: as §2

[9] = system: giant foxtail (Setaria faberi); assay: Test G Post-Emergence Protocol; conditions: Setaria faberi, post-emergence, 312 h; for pest or weed control at 15.625 g/ha: 15.625 g ai/ha, evaluated after 13 days (100=total damage to plant; 0=no damage to plant), read-out: Foxtail, Giant damage rating; for pest or weed control at 62.5 g/ha: 62.5 g ai/ha, read-out: Foxtail, Giant damage rating (100=total damage to plant; 0=no damage to plant); for pest or weed control at 62.5 g/ha / pest or weed control at 250 g/ha: evaluated after 13 days; for pest or weed control at 250 g/ha: 250 g ai/ha, read-out: damage to plant, Foxtail, Giant (100=total damage to plant; 0=no damage to plant)
Method in brief: as §2

[10] = system: ivy-leaved morning glory (Ipomoea hederacea); assay: Test G Post-Emergence Protocol; conditions: Ipomoea, post-emergence, 312 h; for pest or weed control at 15.625 g/ha: 15.625 g ai/ha, evaluated after 13 days (100=total damage to plant; 0=no damage to plant), read-out: Morningglory, Ivy-leaved damage rating; for pest or weed control at 62.5 g/ha: 62.5 g ai/ha, read-out: Morningglory, Ivy-leaved damage rating (100=total damage to plant; 0=no damage to plant); for pest or weed control at 62.5 g/ha / pest or weed control at 250 g/ha: evaluated after 13 days; for pest or weed control at 250 g/ha: 250 g ai/ha, read-out: damage to plant, Morningglory, Ivy-leaved (100=total damage to plant; 0=no damage to plant)
Method in brief: as §2

[11] = system: redroot pigweed (Amaranthus retroflexus); assay: Test G Post-Emergence Protocol; conditions: Amaranthus retroflexus, post-emergence, 312 h; for pest or weed control at 15.625 g/ha: 15.625 g ai/ha, evaluated after 13 days (100=total damage to plant; 0=no damage to plant), read-out: Pigweed, Redroot damage rating; for pest or weed control at 62.5 g/ha: 62.5 g ai/ha, read-out: Pigweed, Redroot damage rating (100=total damage to plant; 0=no damage to plant); for pest or weed control at 62.5 g/ha / pest or weed control at 250 g/ha: evaluated after 13 days; for pest or weed control at 250 g/ha: 250 g ai/ha, read-out: damage to plant, Pigweed, Redroot (100=total damage to plant; 0=no damage to plant)
Method in brief: as §2

[12] = system: velvetleaf (Abutilon theophrasti); assay: Test G Post-Emergence Protocol; conditions: Abutilon theophrasti, post-emergence, 312 h; for pest or weed control at 15.625 g/ha: 15.625 g ai/ha, evaluated after 13 days (100=total damage to plant; 0=no damage to plant), read-out: Velvetleaf damage rating; for pest or weed control at 62.5 g/ha: 62.5 g ai/ha, read-out: Velvetleaf damage rating (100=total damage to plant; 0=no damage to plant); for pest or weed control at 62.5 g/ha / pest or weed control at 250 g/ha: evaluated after 13 days; for pest or weed control at 250 g/ha: 250 g ai/ha, read-out: damage to plant, Velvetleaf (100=total damage to plant; 0=no damage to plant)
Method in brief: as §2

Compound	pest or weed control at 15.625 g/ha [1]	pest or weed control at 62.5 g/ha [1]	pest or weed control at 250 g/ha [1]	plant injury at 15.625 g/ha (corn (Zea mays) [2])	plant injury at 62.5 g/ha (corn (Zea mays) [2])	plant injury at 250 g/ha (corn (Zea mays) [2])	pest or weed control at 15.625 g/ha [3]	pest or weed control at 62.5 g/ha [3]	pest or weed control at 250 g/ha [3]	pest or weed control at 15.625 g/ha [4]	pest or weed control at 62.5 g/ha [4]	pest or weed control at 250 g/ha [4]	pest or weed control at 15.625 g/ha [5]	pest or weed control at 62.5 g/ha [5]	pest or weed control at 250 g/ha [5]	pest or weed control at 15.625 g/ha [6]	pest or weed control at 62.5 g/ha [6]	pest or weed control at 250 g/ha [6]	pest or weed control at 15.625 g/ha [7]	pest or weed control at 62.5 g/ha [7]	further results
Cc1ncc(NC(=O)[C@@H]2C(=O)N(C)C[C@H]2c2ccc(C(F)(F)F)cc2)s1 (racemic) [Compound 1595]	0%	0%	0%	0%	0%	0%	0%	0%	0%	0%	0%	0%	0%	0%	0%	0%	0%	0%	10%	10%	pest or weed control at 250 g/ha [7]: 10%; plant injury at 15.625 g/ha (corn (Zea mays) [8]): 0%; plant injury at 62.5 g/ha (corn (Zea mays) [8]): 60%; plant injury at 250 g/ha (corn (Zea mays) [8]): 0%; pest or weed control at 15.625 g/ha [9]: 0%; pest or weed control at 62.5 g/ha [9]: 0%; pest or weed control at 250 g/ha [9]: 10%; pest or weed control at 15.625 g/ha [10]: 0%; pest or weed control at 62.5 g/ha [10]: 60%; pest or weed control at 250 g/ha [10]: 20%; pest or weed control at 15.625 g/ha [11]: 0%; pest or weed control at 62.5 g/ha [11]: 10%; pest or weed control at 250 g/ha [11]: 20%; pest or weed control at 15.625 g/ha [12]: 0%; pest or weed control at 62.5 g/ha [12]: 10%; pest or weed control at 250 g/ha [12]: 10%
Cc1cccnc1NC(=O)C1C(=O)N(C)CC1c1ccc(C(F)(F)F)cc1 (stereo not drawn) [Compound 1437]	0%	0%	0%	0%	0%	0%	0%	0%	0%	0%	0%	0%	0%	0%	0%	0%	0%	0%	0%	0%	pest or weed control at 250 g/ha [7]: 0%; plant injury at 15.625 g/ha (corn (Zea mays) [8]): 0%; plant injury at 62.5 g/ha (corn (Zea mays) [8]): 0%; plant injury at 250 g/ha (corn (Zea mays) [8]): 0%; pest or weed control at 15.625 g/ha [9]: 0%; pest or weed control at 62.5 g/ha [9]: 0%; pest or weed control at 250 g/ha [9]: 0%; pest or weed control at 15.625 g/ha [10]: 0%; pest or weed control at 62.5 g/ha [10]: 0%; pest or weed control at 250 g/ha [10]: 0%; pest or weed control at 15.625 g/ha [11]: 0%; pest or weed control at 62.5 g/ha [11]: 0%; pest or weed control at 250 g/ha [11]: 0%; pest or weed control at 15.625 g/ha [12]: 0%; pest or weed control at 62.5 g/ha [12]: 0%; pest or weed control at 250 g/ha [12]: 0%
